Laboratory results published in the supplement of paper PMC10949913.

Assays:
Experiment in all cases: area under concentration-response curve (viability) (AUC (a.u.)); higher = less active
Conditions in all cases: 48 h
[1] = system: CU-ACC1
Method in brief: (§1)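 Library compounds were tested at 11 concentrations against three adrenocortical carcinoma cell lines in 1,536-well plates. CellTiter-Glo luminescence was read after 48 h and normalised per plate to vehicle and empty-well controls. Only inhibitory or non-responding curve classes from fitted concentration-response curves contributed AC50 and area under the curve.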

[2] = system: NCI-H295R
Method in brief: as §1

[3] = system: CU-ACC2
Method in brief: as §1

Compound | area under concentration-response curve [1] | area under concentration-response curve [2] | area under concentration-response curve [3]
Cc1oncc1C(=O)Nc1ccc(C(F)(F)F)cc1 | 421 | 481 | 498
O=C(O)CCNc1cc(N2CCc3ccccc3CC2)nc(-c2cccnc2)n1 | 538 | 533 | 636
Cc1ccc(C)c(OCCCC(C)(C)C(=O)O)c1 | 569 | 572 | 661
CC[C@H]1OC(=O)[C@H](C)[C@@H](O[C@H]2C[C@@](C)(OC)[C@@H](O)[C@H](C)O2)[C@H](C)[C@@H](O[C@@H]2O[C@H](C)C[C@H](N(C)C)[C@H]2O)[C@](C)(O)C[C@@H](C)C(=O)[C@H](C)[C@@H](O)[C@]1(C)O | 544 | 594 | 634
COc1cc(F)c(C(C)C)cc1-c1ccc(C(F)(F)F)cc1CN1C(=O)O[C@H](c2cc(C(F)(F)F)cc(C(F)(F)F)c2)[C@@H]1C | 421 | 428 | 505
NC/1=N/C(=O)N(C[C@@H](CO)OC[P](O)(O)=O)/C=C1 | 465 | 496 | 522
CN1CCN(C)C(=O)C1C2=CC=C(N/C3=N/C(=C\N(C)C3=O)C4=C(C)C(=CC=C4)NC(=O)C5=CC6=C(CCCC6)S5)C=C2 (configuration not stated) | 528 | 580 | 612
CC(C)C[C@H](NC(=O)[C@H](Cc1ccccc1)NC(=O)OCc1ccccc1)C(=O)C=O | 456 | 504 | 531
Cn1c(CNc2ccc(C(=N)N)cc2)nc2cc(C(=O)N(CCC(=O)O)c3ccccn3)ccc21 | 715 | 834 | 929
CC(C)=CCC[C@](C)(O[C@@H]1O[C@H](CO[C@@H]2O[C@H](CO)[C@@H](O)[C@H](O)[C@H]2O)[C@@H](O)[C@H](O)[C@H]1O)[C@H]1CC[C@]2(C)[C@@H]1[C@H](O)C[C@@H]1[C@@]3(C)CC[C@H](O[C@@H]4O[C@H](CO)[C@@H](O)[C@H](O)[C@H]4O[C@@H]4O[C@H](CO)[C@@H](O)[C@H](O)[C@H]4O)C(C)(C)[C@@H]3CC[C@]12C | 533 | 591 | 637
CCO[C@@H]1OC(=O)C[C@@H]1NC(=O)[C@@H]1CCCN2C(=O)CC[C@H](NC(=O)c3nccc4ccccc34)C(=O)N12 | 568 | 553 | 594
Cc1ccc(-n2c(C)cc(-c3nnc4n3CCCCC4)c2C)cc1 | 575 | 595 | 647
O=C(O)CNC(=O)c1ncc(-c2cccc(Cl)c2)cc1O | 486 | 516 | 568
Cc1c(N)nc([C@H](CC(N)=O)NC[C@@H](N)C(N)=O)nc1C(=O)N[C@H](C(=O)N[C@@H](C)[C@H](O)[C@@H](C)C(=O)N[C@@H](C(=O)NCCc1nc(-c2nc(C(=O)NCCC[S+](C)C)cs2)cs1)[C@@H](C)O)C(O[C@H]1O[C@H](CO)[C@H](O)[C@@H](O)[C@H]1O[C@H]1O[C@H](CO)[C@@H](O)[C@H](OC(N)=O)[C@@H]1O)c1c[nH]cn1 (some centres not stated) | 508 | 530 | 614
CCC(C)CNCC(=O)N1CCc2sccc2C1c1cccc(C)n1 (configuration not stated) | 531 | 571 | 622
NC(=O)c1cccc(N)c1 | 582 | 595 | 656
COC(=O)Nc1nc2cc(C(=O)c3cccs3)ccc2[nH]1 | 496 | 382 | 516
C=CCN(/C=C1\C(=O)O[C@@H](COC)[C@]2(C)C1=C(O)C(=O)C1=C2[C@@H](OC(C)=O)C[C@]2(C)C(=O)CC[C@H]12)CC=C | 340 | 401 | 385
CC1=C(/C=C/C(C)=C/C=C/C(C)=C/C(=O)O)C(C)(C)CCC1 | 503 | 476 | 592
CCN(C(=O)c1ccccc1OC)c1cc2c(cc1N1CCNC[C@H]1C)n(C)c(=O)n2C | 544 | 510 | 628
CN1C(=O)N[C@@H](Cc2c[nH]c3c(Cl)cccc23)C1=O | 531 | 535 | 512
C[S+](=O)([O-])OCCCCO[S+](C)(=O)[O-] | 463 | 507 | 514

Compound | area under concentration-response curve [1] | area under concentration-response curve [2] | area under concentration-response curve [3]
NCCCCCC(=O)O | 509 | 540 | 585
C[C@@H]1CC2=C(C=C3OCOC3=C2)C(=N\N1C(C)=O)/C4=CC=C(N)C=C4 | 394 | 406 | 398
CC(C)(C)c1cc(C(=O)O)c(NC(=O)Nc2ccc3[nH]ncc3c2)s1 | 551 | 582 | 614
OC[C@H]1OC(O)C[C@@H](O)[C@@H]1O (some centres not stated) | 562 | 607 | 694
FC(F)(F)c1ccc(/C=C/c2nc(COc3ccc(CCCCn4ccnn4)cc3)co2)cc1 | 265 | 531 | 596
CN1CCN(CC1)C2=C(NC(=O)C/3=C/NC(=O)/C=C3C(F)(F)F)C=C(C=C2)C4=CC(=CC=C4)CN5CCOCC5 | 508 | 514 | 610
C[C@H](Cc1ccc(O)c(O)c1)[C@@H](C)Cc1ccc(O)c(O)c1 | 496 | 532 | 565
N#C/C(=C(/N)Sc1ccc(N)cc1)c1ccccc1C(F)(F)F | 533 | 585 | 574
CC(=O)[C@H]1CC[C@H]2[C@@H]3C/C=C4/C[C@@H](O)CC[C@]4(C)[C@H]3CC[C@]12C | 517 | 530 | 627
CC1=NN(c2ccc(C(=O)O)cc2)C(=O)/C1=C/c1ccc(-c2cc(C)c(C)cc2[N+](=O)[O-])o1 | 556 | 585 | 661
CN1CC(=O)\N=C1\NC(=O)NC2=CC(=CC=C2)Cl | 497 | 486 | 566
Cc1cc2c(cc1C1(c3ccc(C(=O)O)cn3)CC1)C(C)(C)CCC2(C)C | 504 | 514 | 598
CC(=O)O[C@@]1(CC[C@H]2[C@@H]3\C=C(C)/C4=C/C(=O)CC[C@]4(C)[C@H]3CC[C@]12C)C(C)=O | 471 | 492 | 553
CCc1cccc2c3c([nH]c12)[C@@](CC)(CC(=O)O)OCC3 | 518 | 525 | 605
O=[N+]([O-])c1ccc(-c2nc(-c3ccc(F)cc3)c(-c3ccncc3)[nH]2)cc1 | 498 | 489 | 567
CC(C)(C)OC(=O)N[C@H]1CCCCC/C=C\[C@@H]2C[C@@]2(C(=O)N[S+](=O)([O-])C2CC2)NC(=O)[C@@H]2C[C@@H](OC(=O)N3Cc4cccc(F)c4C3)CN2C1=O | 414 | 472 | 503
CC(C)[C@H](O)C(=O)N[C@@H](C)C(=O)N[C@@H]1C(=O)N(C)CCc2ccccc21 | 522 | 575 | 577
N#CC1(c2ccc(NC(=O)c3cccnc3NCc3ccncc3)cc2)CCCC1 | 547 | 545 | 531
O=C1O[C@]2(CC[C@@H](C(=O)Nc3ccn(-c4ccccc4F)n3)CC2)c2cnccc21 | 492 | 494 | 602
ClC1=CC=C2OC3=C(\N=C(NC3=O)\[C@@H]4CCCN4)C2=C1 | 410 | 534 | 601
Cc1cnc(C(=O)O)c[n+]1[O-] | 513 | 526 | 579
Cc1nn(C)c(COc2ccc(N3CCN([S+](=O)([O-])N(C)C)CC3)cc2)c1-c1cccc2c(CCCOc3cccc4ccccc34)c(C(=O)O)n(CCN3CCOCC3)c12 | 517 | 508 | 580
